Consider one compound from patent US8703725B2, “Nutritional compositions” (NESTEC S.A., priority 2002, dated 2014).

This assay relates to muscle protein kinetics. As to the kind of experiment: Protein kinetics in muscle of rabbits infused with amino acid mixtures (surgical stress model). As to conditions: rabbit, infusion, means ± SEM. It counts as in vivo, New Zealand white rabbits. As to the method: To investigate the optimal mixture of free amino acids for stimulating net muscle protein synthesis a series of studies in New Zealand white rabbits weighing about 4.5 kg was performed. Net muscle protein balance was quantified by a technique analogous to the one used for human studies as described in Biolo et al, J Parent Enteral Nutr 16:305-315, 1992, which is hereby incorporated by reference, except that leg blood flow was measured by flow probe. This animal model is designed to represent a stress model induced by the surgical procedures needed to collect the samples and therefore is considered to be a good model for a seriously-ill […] patient. Different amino acid mixtures were infused into the rabbits, and the response of muscle quantified.
The groups were as follows:
AA group: A balanced AA solution (10% TRAVASOL®) containing all amino acids (27.3 umol·kg^−1·min^−1)
EAA group: Only essential amino acids (27.3 umol·kg^−1·min^−1)
Leu (25%)+AA group: Leucine was added to the balanced AA solution to account for 25% of total nitrogen and infused at the same total nitrogen group as others (27.3 umol·kg^−1·min^−1)
Leu (35%)+AA group: Same as above, except Leu comprised 35% of total
Leu only: Leucine only at 8.3 umol·kg·min

Take `CC(C)C[C@H](N)C(=O)O` [Leu alone, Leucine]: the “Protein kinetics in muscle: Breakdown” value is 9.2 ± 0.5 µmol/kg/min. Besides, where the note is “*p<0.05 vs control”, the “Protein kinetics in muscle: Net balance” value is -2.6 ± 0.3 µmol/kg/min and the “Protein kinetics in muscle: Synthesis” value turned out to be 6.6 ± 0.7 µmol/kg/min.
